≈ marks a conversion by molar mass, not a printed value. Where “and” joins values, the source holds several entries; their conditions need not be identical. Equal values may be shown once. Read-outs that look alike come from different tables or passages of the source.
Experiments:
XcMetRS (WT) [1] = target: T1, XcMetRS (WT) (Xanthomonas citri pv. citri, UniProt Q8PMP0); assay: XcMetRS enzyme kinetic assay (coupled fluorometric AMP/resorufin assay); type: biochemical; design: His tag with TEV site (from pET28-TEV vector) (N); made in house; host or cells: E. coli BL21(DE3)
Excerpt: Similarly, vmax^app, K’, and Hill slope (h) were obtained for ATP using the equation v = (vmax^app x [S]^h)/(K’ + [S]^h). The catalytic rate constant (kcat) was estimated by the equation kcat = vmax^app/Et, where Et is the enzyme concentration in the assay.

XcMetRS (WT) [2] = target: T1, XcMetRS (WT); type: binding; design: His tag with TEV site (from pET28-TEV vector) (N); made in house; host or cells: E. coli BL21(DE3)
Description: All wells contained 2% DMSO used to prepare stock solutions of REP3123 and REP8839. Protein unfolding was monitored on a 7500 Real-Time PCR System (Applied Biosystems) cycler by measuring fluorescence (λEmission = 580 nm) during 71 cycles starting at 25 °C, with a one-degree Celsius increment at each cycle. Experimental data points were normalized and adjusted to the equation y = ymin + ((ymax − ymin)/(1 + e^(Tm − T)/S)), where ymax and ymin are normalized fluorescence values, Tm is the melting temperature, T is the temperature, and S is the slope.

X. citri strain 306 = assay: Antibiogram, agar disc-diffusion assay; details: X. citri strain 306, LBON-agar, 24 h at 28 °C
Description: (§1) X. citri 306 was cultivated on LBON medium (10 g/l tryptone; 5 g/l yeast extract; pH 7.0) at 28 °C. The susceptibility to distinct antibiotics was evaluated using the disc-diffusion method. Briefly, a bacterial suspension was prepared in sterile saline solution (0.85% NaCl) to an optical density of 0.1 (approximately 1.5 × 10^8 CFU/ml) and used to inoculate the surface of an LBON-agar plate (1.7% agar; 150 × 15 mm Petri dish; 55 ml/dish). Antibiotic discs were applied 15 min after inoculum, and after incubation for 24 h at 28 °C, images were recorded with a camera. The minimum inhibitory concentration was obtained through broth microdilution method. These assays were performed with eight replicates for each compound concentration. Serial 2-fold dilutions of compounds were prepared in DMSO and 1 μl transferred to sterile 96-well assay plates containing 49 μl of the culture media (LBON). Then, 50 μl of a bacterial suspension (1 × 10^6 CFU/ml) was added to each well. Plates were incubated at 28 °C for 24 h before addition of 10 μl of resazurin 0.02%. After a new incubation (up to 4 h), the fluorescence (λExc/Em = 570–615 nm) was measured using a plate reader (CLARIOstar, BMG LabTech). Blanks were prepared with culture media. Positive and negative controls were prepared with DMSO and tetracycline (10 μg/ml).

X. citri 306 = assay: X. citri growth inhibition, broth microdilution with resazurin; details: for MIC (minimum inhibitory concentration): X. citri 306, LBON, 28 °C, 24 h, at least 90% growth inhibition; for EC50 / MIC: Xanthomonas citri, 306, 24 h; for EC50: read-out: EC50 (growth inhibition); for MIC: read-out: MIC (minimum inhibitory concentration)
Description: as §1

[3] = target: coupled enzyme system (ScAMD, CjIMPDH, diaphorase); assay: Control: inhibition of the coupled enzyme system used to detect AMP production; details: read-out: IC50 on coupled enzyme system, without XcMetRS step
Description: Inhibition studies using the XcMetRS-ScAMD-CjIMPDH-diaphorase–coupled assay (Fig. S2) were performed at various concentrations (half-log serial dilutions starting at 100 μM) of the inhibitors in anhydrous dimethyl sulfoxide (DMSO). Assays were performed at 25 °C in black 384-well microplates in 25-μl final volume in 0.1 M Tris HCl, pH 7.5, 0.15 M KCl, 10 mM MgCl2, and 0.01% Triton X-100.
Values correspond to measurements of four independent experiments and error bars denote standard deviations.

XcMetRS = target: T2, XcMetRS (Xanthomonas citri pv. citri, UniProt Q8PMP0); assay: Isothermal titration calorimetry (ITC); type: binding; details: for Kd: 20 °C
T2 construct: His tag with TEV site (from pET28-TEV vector) (N); made in house; host or cells: E. coli BL21(DE3)
Description: ITC measurements were performed on a MicroCal VP-ITC calorimeter equipped with a VPViewer2000 software for data acquisition at the Spectroscopy and Calorimetry Lab facility (LEC) from the Brazilian Bioscience National Laboratory/Brazilian Centre for Research in Energy and Materials (LNBio/CNPEM). Purified XcMetRS (10 μM) was titrated against the ligands in 0.1 M Hepes, pH 7.5, containing 0.3 M NaCl, 10 mM MgCl2, 5% glycerol in the absence or presence of AMP or ATP at a 5 mM final concentration. To avoid nucleotide dilution, AMP/ATP was added to both ligand and receptor solutions. The ligands were added to the protein solutions kept in a 2-ml experimental cell using a titration syringe. The reactions were performed at 20 °C under agitation (200 rpm), starting with a first injection of 2 μl of ligand solution (200 μM) during 4 s, followed by 27 injections of 10 μl with 200-s intervals between injections. Titration results were corrected for ligand dilution, and all the data were analyzed using Origin7.0 software.

XcMetRS (WT) [4] = target: T1, XcMetRS (WT)
Description: Inhibition studies using the XcMetRS-ScAMD-CjIMPDH-diaphorase–coupled assay (Fig. S2) were performed at various concentrations (half-log serial dilutions starting at 100 μM) of the inhibitors in anhydrous dimethyl sulfoxide (DMSO). Assays were performed at 25 °C in black 384-well microplates in 25-μl final volume in 0.1 M Tris HCl, pH 7.5, 0.15 M KCl, 10 mM MgCl2, and 0.01% Triton X-100. […] Plots were prepared in GraphPad Prism.

T2 sequence (Q8PMP0 whole entry): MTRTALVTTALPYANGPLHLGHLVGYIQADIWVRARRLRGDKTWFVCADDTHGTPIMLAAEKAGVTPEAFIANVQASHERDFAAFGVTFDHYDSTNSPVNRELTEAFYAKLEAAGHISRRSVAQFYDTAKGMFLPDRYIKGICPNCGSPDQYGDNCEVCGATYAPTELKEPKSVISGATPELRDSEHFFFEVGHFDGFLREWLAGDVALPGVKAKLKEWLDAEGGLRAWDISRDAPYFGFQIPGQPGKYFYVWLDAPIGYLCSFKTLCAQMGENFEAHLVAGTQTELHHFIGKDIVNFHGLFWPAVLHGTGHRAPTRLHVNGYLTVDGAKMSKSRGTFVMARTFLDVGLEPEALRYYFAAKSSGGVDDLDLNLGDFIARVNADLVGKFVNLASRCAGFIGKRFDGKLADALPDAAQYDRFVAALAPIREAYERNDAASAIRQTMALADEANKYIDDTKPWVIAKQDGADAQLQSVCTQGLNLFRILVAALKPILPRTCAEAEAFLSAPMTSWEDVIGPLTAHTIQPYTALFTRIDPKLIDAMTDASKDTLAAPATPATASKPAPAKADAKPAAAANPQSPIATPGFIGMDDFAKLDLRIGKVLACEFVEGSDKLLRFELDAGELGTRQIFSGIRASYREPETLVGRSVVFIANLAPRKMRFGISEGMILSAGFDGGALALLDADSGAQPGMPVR
T1 sequence (Q8PMP0 whole entry): as above

Question: For `Nc1ncnc2c1ncn2[C@@H]1O[C@H](COP(=O)(O)OP(=O)(O)OP(=O)(O)O)[C@@H](O)[C@H]1O` [ATP], which kcat (XcMetRS (WT) [1]; ATP as varied substrate) is on record?
Answer: 0.33 ± 0.005 s⁻¹

Question: What about the “h (Hill slope)” value (XcMetRS (WT) [1]; ATP varied) of the same compound?
Answer: 3.3

Question: And the “K’” value (XcMetRS (WT) [1]; ATP varied, L-Met 200 μM)?
Answer: 0.95 ± 0.08 mM

Question: And the Tm (XcMetRS (WT) [2]; ligand 5 mM)?
Answer: 51.3 ^oC

Question: And the Tm (XcMetRS (WT) [2]; ligand 5 mM, listed as ATP:Mg)?
Answer: 51,3 ± 0,3 ^oC

Question: What about the Tm shift (XcMetRS (WT) [2]; ligand alone) of the same compound?
Answer: 3.0 °C

Question: How did the “susceptibility phenotype of X. citri in antibiogram” value (“susceptibility phenotype” for short) (X. citri strain 306) turn out when `C[C@H]1[C@H](NC(=O)/C(=N\OC(C)(C)C(=O)O)c2csc(N)n2)C(=O)N1S(=O)(=O)O` [Aztreonam] was run?
Answer: resistant

Question: Which kcat (XcMetRS (WT) [1]; L-Met as varied substrate) does the source give for `CSCC[C@H](N)C(=O)O` [L-Met, L-methionine] here?
Answer: 0.2062 ± 0.00467 s⁻¹

Question: What about the Tm (XcMetRS (WT) [2]; ligand 5 mM) of the same compound?
Answer: 55,9 ± 0,2 ^oC

Question: With `O=c1cc(NCCCN[C@@H]2CCOc3c(Br)cc(Br)cc32)[nH]c2ccsc12` [REP3123] as the compound, how does the “MIC (minimum inhibitory concentration)” value (X. citri 306) read?
Answer: > 128 µg/mL

Question: And the EC50 (X. citri 306)?
Answer: 60.5 ± 1 µg/mL (≈ 118 µM)

Question: What about the MIC (X. citri 306) of the same compound?
Answer: > 128 µg/mL

Question: What about the IC50 [3] of the same compound?
Answer: 26.4 µM

Question: And the Tm (XcMetRS (WT) [2]; ligand 25 µM)?
Answer: 47,9 ± 0,1 ^oC

Question: What about the Tm (XcMetRS (WT) [2]; ligand + ATP:Mg) of the same compound?
Answer: 50,7 ± 0,1 ^oC

Question: What does the source list for `C=C(F)c1sc(CNCCCNc2cc(O)c3ccccc3n2)c(C)c1Br` [REP8839]?
Answer: Kd (XcMetRS; in the presence of AMP (5 mM)): 0.63 µM and 0.6 µM; Kd (XcMetRS; in the presence of ATP (5 mM)): 1.37 µM and 1.4 µM; KD (XcMetRS; in the absence of nucleotides): no KD for REP8839 could be measured; MIC (minimum inhibitory concentration) (X. citri 306): 64 µg/mL (≈ 142 µM); EC50 (X. citri 306): 25.5 ± 1 µg/mL (≈ 56.6 µM); MIC (X. citri 306): 64 µg/mL (≈ 142 µM); IC50 (XcMetRS (WT) [4]): 20.8 ± 6.5 µM; Tm (XcMetRS (WT) [2]; ligand 25 µM): 50,6 ± 0,1 ^oC; Tm (XcMetRS (WT) [2]; ligand + ATP:Mg): 52,8 ± 0,1 ^oC

Question: With `CC1(C)S[C@@H]2[C@H](NC(=O)[C@H](N)c3ccc(O)cc3)C(=O)N2[C@H]1C(=O)O` [amoxicillin] as the compound, how does the “susceptibility phenotype” value (X. citri strain 306) read?
Answer: resistant

Question: `CC1(C)S[C@@H]2[C@H](NC(=O)[C@H](N)c3ccccc3)C(=O)N2[C@H]1C(=O)O` [ampicillin] was tested. Which “susceptibility phenotype” value (X. citri strain 306) did it give?
Answer: resistant

Question: `N[C@@H](C(=O)N[C@@H]1C(=O)N2C(C(=O)O)=C(Cl)CS[C@H]12)c1ccccc1` [cefaclor] was tested. Which “susceptibility phenotype” value (X. citri strain 306) did it give?
Answer: resistant

Question: How did the “susceptibility phenotype” value (X. citri strain 306) turn out when `CO/N=C(\C(=O)N[C@@H]1C(=O)N2C(C(=O)[O-])=C(C[N+]3(C)CCCC3)CS[C@H]12)c1csc(N)n1` [cefepime] was run?
Answer: resistant

Question: `CO/N=C(\C(=O)N[C@@H]1C(=O)N2C(C(=O)O)=C(COC(C)=O)CS[C@H]12)c1csc(N)n1` [cefotaxime] was tested. Which “susceptibility phenotype” value (X. citri strain 306) did it give?
Answer: resistant

Question: `CO[C@@]1(NC(=O)Cc2cccs2)C(=O)N2C(C(=O)O)=C(COC(N)=O)CS[C@@H]21` [cefoxitin] was tested. Which “susceptibility phenotype” value (X. citri strain 306) did it give?
Answer: resistant

Question: How did the “susceptibility phenotype” value (X. citri strain 306) turn out when `CC(C)(O/N=C(\C(=O)N[C@@H]1C(=O)N2C(C(=O)[O-])=C(C[n+]3ccccc3)CS[C@H]12)c1csc(N)n1)C(=O)O` [ceftazidime] was run?
Answer: resistant

Question: For `CO/N=C(\C(=O)N[C@@H]1C(=O)N2C(C(=O)O)=C(CSc3nc(=O)c(=O)[nH]n3C)CS[C@H]12)c1csc(N)n1` [ceftriaxone], which “susceptibility phenotype” value (X. citri strain 306) is on record?
Answer: resistant

Question: How did the “susceptibility phenotype” value (X. citri strain 306) turn out when `CC(=O)OCC1=C(C(=O)O)N2C(=O)[C@@H](NC(=O)Cc3cccs3)[C@H]2SC1` [cephalothin] was run?
Answer: resistant

Question: With `C[C@@H](O)[C@H]1C(=O)N2C(C(=O)O)=C(SCCN=CN)C[C@H]12` [imipenem] as the compound, how does the “susceptibility phenotype” value (X. citri strain 306) read?
Answer: resistant

Question: For `O=C1CN(/N=C/c2ccc([N+](=O)[O-])o2)C(=O)N1` [nitrofurantoin], which “susceptibility phenotype” value (X. citri strain 306) is on record?
Answer: resistant

Question: Which “susceptibility phenotype” value (X. citri strain 306) does the source give for `NC[C@H]1O[C@H](O[C@H]2[C@H](O)[C@@H](O[C@H]3O[C@H](CO)[C@@H](O)[C@H](N)[C@H]3O)[C@H](N)C[C@@H]2N)[C@H](N)C[C@@H]1O` [tobramycin] here?
Answer: close to breakpoint values considered for a resistant phenotype

Question: How did the “susceptibility phenotype” value (X. citri strain 306) turn out when neomycin was run?
Answer: close to breakpoint values considered for a resistant phenotype
